Results reported in a melting point compilation (Tetko et al.).

Compound	melting point [°C]
Nc1ccc(N2CCOCC2)cc1C(=O)O	235 to 237
O=C(CCl)Nc1cc2ccccc2cc1C(=O)O	223 to 225
Cc1nn(C)c(C)c1S(N)(=O)=O	213 to 215
Nc1nnnn1-c1ccccc1	159 to 161
O=Cc1ccc(OCc2ccccc2)c(Br)c1	96 to 98
O=C(O)CCn1cc(Br)cn1	112 to 114
O=C(CCl)N1CCc2[nH]c3ccccc3c2C1	188 to 190
O=C(O)c1ccnc(C2CC2)c1	257 to 259
CCn1ccnc(Cl)c1=O	52 to 54
Cc1ccc(-c2nc(C(=O)O)cs2)o1	194 to 196
O=C(O)c1cc(F)cc(S(=O)(=O)Cl)c1Br	186 to 188
Cc1ccc(S(=O)(=O)NCCCC(=O)O)cc1C	111 to 113
NC(=S)c1cccc(S(N)(=O)=O)c1	152 to 154
CCCS(=O)(=O)Nc1ccc(N)cc1	111 to 113
Cn1c(C(F)(F)F)nc2cc(C(=O)O)ccc21	254 to 256
CN(C)c1nc(Cl)c(C=O)s1	109 to 111
COc1ccccc1NC(=O)CC(=O)Nc1ccccc1OC	154 to 156
Nc1ccc2nc(NC(=O)CN3CCOCC3)sc2c1	228 to 230
Nc1cccc(S(=O)(=O)Nc2ccccc2F)c1	195 to 197
Nc1cccnc1N1CCCC1	78 to 80
O=Cc1cn(-c2ccccc2)nc1-c1ccc(-c2nn(-c3ccccc3)cc2C=O)cc1	271 to 273
Cc1cc(-c2nc(C)cs2)c(=O)[nH]n1	267 to 269
O=C1CCCc2cc(C(=O)O)ccc2N1	267 to 269
O=C(O)Cc1csc(-c2ccoc2)n1	128 to 130

Compound	melting point [°C]
Cc1ccc(-n2[nH]c(C(=O)O)c(CCO)c2=O)cc1	199 to 201
Cc1ccc(-c2nn(-c3ccccc3)cc2C(=O)O)cc1C	215 to 217
CNc1sccc1C#N	71 to 73
CC(=O)NCc1ccc(C(=O)C(C)Cl)s1 (configuration not stated)	79 to 81
O=C(Nc1ccc(F)cc1)NC1CCNCC1	183 to 185
CCCn1c(=O)[nH]c(=O)c2[nH]cnc21	288 to 290
Clc1nnc(Cl)c(Cl)n1	56 to 58
CNCc1nnn[nH]1	224 to 226
CCOC(=O)c1cnc2ccccc2c1-n1cncn1	84 to 86
CN(C)c1cccc(N)n1	41 to 43
O=C(C1CCNCC1)N1CCc2ccccc21	67 to 69
CC(=O)Nc1nnc(S)s1	267 to 269
COc1ccc(C)cc1NCCC(=O)O	77 to 79
CN1CCN(c2ncc(Br)cc2CO)CC1	140 to 142
O=C(O)c1ccccc1SCCO	125 to 127
CCN(CCC(N)=S)C(C)=O	56 to 58
Cc1cc(Cl)ccc1OC(C(=O)O)c1ccccc1 (configuration not stated)	122 to 124
Cc1noc(C2(C)CCN(C(=O)OC(C)(C)C)CC2)n1	80 to 82
Nc1cc([N+](=O)[O-])ccn1	96 to 98
Cc1ccc([N+](=O)[O-])c(OCCC(=O)O)c1	134 to 136
Nc1nc(-c2cccc(Oc3ccccc3)c2)ns1	138 to 140
O=C(O)CCC1CCNCC1	275 to 277
Cc1cc(Cl)c2cc(OC(F)F)ccc2n1	81 to 83
Cc1ccc(C(=O)O)c(O)c1C	197 to 199

Compound	melting point [°C]
O=C(O)CCc1nnc(-c2ccccn2)o1	191 to 193
c1cncc(NCc2ccco2)c1	45 to 49
O=C(O)c1c(C(F)(F)F)n[nH]c1C(F)(F)F	255 to 257
ClCc1nnc(-c2ccc(Br)s2)o1	109 to 111
Cn1c(S)nc2sc3c(c2c1=O)CCCC3	304 to 306
Fc1ccccc1CCNC1=NCCS1	95 to 97
Cc1n[nH]c2cc(N)ccc12	189 to 191
COC(=O)c1ccc(CC#N)cc1	55 to 58
Cc1cc(Br)cc2cc(C(=O)C(C)C)oc12	69 to 71
Cc1ccc(S(=O)(=O)CC(=O)CBr)cc1	133 to 135
Cc1cc(CN)cc(C)c1O	99 to 101
C1=CNc2cccc(=C3N=c4ccncc4=N3)c2=C1	316 to 318
CC(=O)N1CCCC(C(=O)O)C1 (configuration not stated)	129 to 131
COC(=O)c1ccc(N)c(F)c1	111 to 113
O=C(O)C1CC(=O)N(c2ccc3c(c2)CCC3)C1 (configuration not stated)	179 to 181
O=c1cc(CCl)c2ccc(O)cc2o1	135 to 137
CC(Cl)C(=O)Nc1ccccc1[N+](=O)[O-] (configuration not stated)	71 to 73
O=C1NC(=O)N(C2CCS(=O)(=O)C2)C1=O (configuration not stated)	244 to 246
CC(CC(=O)O)C(=O)c1ccc(Cl)cc1 (configuration not stated)	73 to 75
O=S(=O)(Cl)c1scc(Br)c1Br	111 to 113
CCOc1ccc(-c2cc(C(=O)O)c3c(C)noc3n2)cc1	222 to 224
O=C(Nc1ccccn1)c1ccc(O)cc1	176 to 178
CC(C)(C)OC(=O)N[C@H]1C[C@H](N)C1	60 to 62
CC(NC(=O)c1cccs1)C(=O)O (configuration not stated)	163 to 165
